Measured values as given in patent US7745404B2, “Use of calcitonin and calcitonin-like peptides to treat and prevent multiple sclerosis” (Wisconsin Alumni Research Foundation, priority 2002, dated 2010).

Key:
Type in all cases: in vivo
[1] = system: EAE in female C57BL/6J mice; assay: EAE in female C57BL/6J mice, calcitonin and Vit D, Example 4; conditions: for EAE score: female C57BL6J mice, compared to 1 ng Vit D alone (FIG. 5, Table 6); for Incidence: vehicle pump, animals sick/total
Protocol: To determine the effect of calcitonin and Vit D on EAE in C57BL/6J mice, female C57BL/6J mice were maintained on standard chow until eight weeks of age, and then switched to a purified diet containing 0.87% calcium supplemented with 1 ng or 30 ng of 1,25-(OH)2D3 for one week prior to EAE immunization.
(§1) EAE was induced as described above. Mice were injected with 200 ng of B. pertussis toxin on the day of immunization and 48 hours later.
(§2) sCT was prepared as described above. One week after immunization, mice were weighed and the pumps were filled with vehicle or 30 μg/kg per day of sCT of body weight to each mouse. The pumps were surgically placed subcutaneously in the upper back of mice anesthetized with 2% isofluorane. At the end of the study, successful delivery of the sCT was assessed by two methods. First, the fluid volume remaining in the pump reservoirs was measured. Second, the remaining sCT was pooled and intraperitoneally injected into C57BL/6J mice that were not included in the initial study. Serum calcium measurements were taken six hours after injection to determine if sCT maintained its bioactivity throughout the study.
(§3) Mice were examined daily, for over two weeks, for clinical signs of EAE utilizing the following scoring system as described above.
(§4) Blood samples were collected at multiple time-points and prepared and analyzed as described above. Likewise, statistical analysis was performed as noted above.

[2] = Serum calcium in female C57BL/6J mice, Example 4; conditions: 30 ng Vit D (regardless of whether sCT was provided) compared to 1 ng Vit D
Protocol: (§5) Collected blood samples were centrifuged at 6000 rpm for 15 minutes; followed by another 60-second spin at 14000 rpm. Serum samples were diluted in 0.1% LaCl3 and serum calcium values were measured using a Perkin Elmer atomic absorption spectrometer.
as §4

[3] = system: experimental autoimmune encephalomyelitis (EAE) in female 1α-OH KO mice; assay: EAE (murine model of MS) in female 1α-OH KO mice, Example 1
Protocol: (§6) To determine the effect of calcitonin on the murine model of MS, experimental autoimmune encephalomyelitis (EAE), 25-hydroxyvitamin D3-1α-hydroxylase knockout mice (1α-OH KO) were maintained on a purified diet containing 0.87% calcium and 1 ng 1,25-(OH)2D3 (Vit D) for two to three weeks prior to EAE immunization. EAE was induced at six to ten weeks of age by subcutaneous immunization of 200 μg of the immunodominant peptide to myelin oligodendrocyte glycoproprotein (MOG35-55).
(§7) The peptide was synthesized at University of Wisconsin Biotechnology Center using standard 9-fluorenyl-methoxy-carbonyl chemistry. The peptide was dissolved in Freund's complete adjuvant (CFA; Sigma; St. Louis, Mo.) containing 4 mg/ml of heat-inactivated Mycobacterium tuberculosis […] (Difco Laboratories; Detroit, Mich.).
(§8) Mice were injected with 200 ng of Bordetella pertussis toxin (List Biological Laboratories, Campbell, Calif.) on the day of immunization and 48 hours later. The mice were examined daily for clinical signs of EAE utilizing the following scoring system: 0, no sign; 1, limp tail; 2, hindlimb weakness; 3, hindlimb paralysis; 4, forelimb paralysis; 5, moribund or death.
(§9) Salmon calcitonin (sCT; Bachem California; Torrence, Calif.) was dissolved to a concentration of 1 mg/ml in a vehicle containing 150 mM NaCl, 1 mM HCl, and 2% heat inactivated sera. The serum used was from 1α-OH KO mice matched by sex to the group of mice receiving the treatment. SCT was chronically administered using Alzet osmotic minipumps model 1002 (Durect Corp.; Cupertino, Calif.) calibrated to deliver 0.25 μl/hour over a 15 day period.
(§10) Ten days after immunization, mice were weighed and the pumps were filled with either vehicle or sCT diluted to deliver 6 μg/kg of body weight per day to each mouse. The pumps were surgically placed subcutaneously in the upper back of mice anesthetized with 2% isofluorane. At the end of the study, successful delivery of the sCT was assessed by two methods. First, the fluid volume remaining in the pump reservoirs was measured. Second, the remaining sCT was pooled and intraperitoneally injected into 1α-knockout mice that were not included in the initial study. Serum calcium measurements were taken six hours after injection to determine if sCT maintained its bioactivity throughout the study. Blood samples were collected at multiple time-points throughout the study to monitor changes in serum calcium levels. Blood was obtained by the orbital bleed method. Approximately 150 μl was collected per mouse.
(§11) Statistical analysis was performed using the two-tailed Fisher exact probability test on incidence rates and the unpaired Student's t-test on all other measurements. Values of P<0.05 were considered statistically significant.

[4] = system: experimental autoimmune encephalomyelitis (EAE) in male 1α-OH KO mice; assay: EAE (murine model of MS) in male 1α-OH KO mice, Example 1
Protocol: as §6, §7, §8, §9, §10, §11

[5] = system: EAE in female C57BL6h mice; assay: EAE in female C57BL6h mice, Example 2
Protocol: To determine the effect of calcitonin on EAE in mice, female mice were maintained as described above. The strain of mouse used in this experiment was C57BL6 which was obtained from Harlan Labs and therefore should be designated C57BL6h. The only difference from the experiment above is that these mice were fed a regular chow diet (Formulab Chow 5008, PMI Labdiet).
as §1
as §2, with “vehicle, 6” for “vehicle or 30”, “μg/kg of sCT” for “μg/kg”, “day” for “day of sCT”, “into” for “into C57BL/6J”
Mice were examined daily, for over two weeks, for clinical signs of EAE utilizing the following scoring system described above.
as §4

[6] = system: EAE in female C57BL/6J mice; assay: EAE in female C57BL/6J mice, sCT dose levels, Example 3; conditions: for % Sick / Incidence / Severity / Mean Onset Day: female C57BL/6J mice, standard chow; for Incidence: animals sick/total; for Severity: EAE score 0-5; for Mean Onset Day: days post immunization
Source text: To determine the effect of calcitonin on EAE in C57BL/6J mice (C57BL6 mice from Jackson Labs), female mice were maintained on a standard chow diet prior to and following EAE immunization. The C57BL6J strain was chosen primarily because it is one of the few strains susceptible to MOG-induced EAE, and also because the 1α-KO has been backcrossed into the C57BL6J strain. The diet was changed primarily because the mice being used were wild-type and no longer required the supplemented 1,25(OH)2D3 that the 1α-KO mice do. Additionally, we have typically seen higher incidence rates when animals are maintained on a regular chow diet versus the purified diet.
as §1
sCT was prepared as described above. One week after immunization, mice were weighed and the pumps were filled with vehicle, 6 μg/kg of sCT per day of body weight or 60 μg/kg of sCT per day of body weight to each mouse. The pumps were surgically placed subcutaneously in the upper back of mice anesthetized with 2% isofluorane. At the end of the study, successful delivery of the sCT was assessed by two methods. First, the fluid volume remaining in the pump reservoirs was measured. Second, the remaining sCT was pooled and intraperitoneally injected into C57BL/6J mice that were not included in the initial study. Serum calcium measurements were taken six hours after injection to determine if sCT maintained its bioactivity throughout the study.
as §3
(§12) Blood samples were collected at multiple time-points and prepared and analyzed as described above. Likewise, statistical analysis was as performed as noted above.

[7] = system: EAE in female C57BL/6J mice; assay: EAE in female C57BL/6J mice, sCT started prior to immunization, Example 5
Protocol: To determine the effect of calcitonin in C57BL/6J mice on EAE prior to immunization, female mice were maintained on a standard chow diet prior to and following EAE immunization.
as §1
as §2, with “However, two days prior to” for “One week after”, “6” for “30”
Mice were examined daily, for over two weeks, for clinical signs of EAE utilizing the scoring system described above.
as §4

[8] = Serum calcium in 1α-OH KO mice, Example 1; conditions: 6 μg/kg of calcitonin
Protocol: as §10, §5

[9] = Serum calcium in female C57BL/6J mice, Example 3
Protocol: as §5, §12

[10] = female C57BL/6J, 0.87% calcium diet with 1 ng Vit D
[11] = female C57BL/6J, 0.87% calcium diet with 30 ng Vit D

Compound: C=C1/C(=C\C=C2/CCC[C@]3(C)[C@@H]([C@H](C)CCCC(C)(C)O)CC[C@@H]23)C[C@@H](O)C[C@@H]1O [Vit D, 1α,25-dihydroxyvitamin D3]
- EAE score ([1]; 30 ng Vit D): delayed and diminished the EAE score
- % Sick [1, 10]: 67.0%
- Incidence [1, 10]: 6/9 sick
- Severity ([1]; female C57BL/6J, 0.87% calcium diet with 1 ng Vit D, EAE score 0-5): 2.9 ± 0.9
- Mean Onset Day ([1]; female C57BL/6J, 0.87% calcium diet with 1 ng Vit D, days post immunization): 15 ± 2 days
- % Sick [1, 11]: 0.0%
- Incidence [1, 11]: 0/8 sick
- serum calcium levels [2]: elevated

Compound: Salmon calcitonin [sCT]
- % Sick ([3]; female 1α-KO mice, 0.87% calcium + 1 ng Vitamin D diet, sCT 6 μg/kg per day by minipump from ten days after immunization): 42.9%
- Severity ([3]; female 1α-KO mice, 0.87% calcium + 1 ng Vitamin D diet, sCT 6 μg/kg per day by minipump, EAE score 0-5): 1.3 ± 0.6
- Mean Onset Day ([3]; female 1α-KO mice, 0.87% calcium + 1 ng Vitamin D diet, sCT 6 μg/kg per day by minipump, days post immunization): 41 ± 11 days
- Incidence ([3]; female 1α-KO mice, 0.87% calcium + 1 ng Vitamin D diet, sCT 6 μg/kg per day by osmotic minipump from ten days after immunization, animals sick/total): 3/7 sick
- EAE score ([3]; female 1α-OH KO mice, compared to vehicle alone (FIG. 1, Table 2)): delayed and diminished the EAE score
- % Sick ([4]; male 1α-KO mice, 0.87% calcium + 1 ng Vitamin D diet, sCT 6 μg/kg per day by minipump): 28.6%
- Severity ([4]; male 1α-KO mice, 0.87% calcium + 1 ng Vitamin D diet, sCT 6 μg/kg per day by minipump, EAE score 0-5): 2.5 ± 0.7
- Mean Onset Day ([4]; male 1α-KO mice, 0.87% calcium + 1 ng Vitamin D diet, sCT 6 μg/kg per day by minipump, days post immunization): 30 ± 8 days
- Incidence ([4]; male 1α-KO mice, 0.87% calcium + 1 ng Vitamin D diet, sCT 6 μg/kg per day by osmotic minipump from ten days after immunization, animals sick/total): 2/7 sick
- reduction in the EAE score, male versus female ([4]; male 1α-OH KO mice treated with calcitonin compared with female 1α-OH KO mice treated with calcitonin): similar, but lesser, reduction in the EAE score
- EAE score ([4]; male 1α-OH KO mice, compared to vehicle alone (FIG. 2, Table 3)): lowered the EAE score
- EAE score ([5]; compared to vehicle alone (FIG. 3)): delayed and diminished the EAE score
- % Sick ([5]; sCT 6 μg/kg per day by minipump from one week after immunization): 25.0%
- Severity ([5]; sCT 6 μg/kg per day by minipump from one week after immunization, EAE score 0-5): 2.0 ± 0.7
- Mean Onset Day ([5]; sCT 6 μg/kg per day by minipump from one week after immunization, days post immunization): 14 ± 1 days
- Incidence ([5]; sCT 6 μg/kg per day by minipump from one week after immunization, table title: 0.87% calcium + 1 ng Vitamin D diet (text: regular chow), animals sick/total): 2/8 sick
- EAE score ([6]; female C57BL6J mice administered 60 μg/kg of calcitonin, compared to vehicle alone (FIG. 4, Table 5)): delayed and diminished the EAE score
- % Sick ([6]; 6 μg/kg sCT): 82.0%
- Incidence ([6]; 6 μg/kg sCT per day by minipump from one week after immunization): 9/11 sick
- Severity ([6]; 6 μg/kg sCT): 3.8 ± 0.6
- Mean Onset Day ([6]; 6 μg/kg sCT): 14 ± 3 days
- % Sick ([6]; 60 μg/kg sCT): 67.0%
- Incidence ([6]; 60 μg/kg sCT per day by minipump from one week after immunization): 6/9 sick
- Severity ([6]; 60 μg/kg sCT): 3.5 ± 1.3
- Mean Onset Day ([6]; 60 μg/kg sCT): 16 ± 2 days
- EAE score ([1]; sCT (30 μg/kg per day)): delayed and diminished the EAE score
- EAE score ([7]; female C57BL6J mice administered 6 μg/kg of calcitonin from two days prior to immunization, compared to vehicle alone (FIG. 6)): delayed and diminished the EAE score
- Incidence ([7]; female C57Bl/6J mice, standard chow, sCT 6 μg/kg per day by minipump from two days prior to immunization, animals sick/total): 19/20 sick
- % Sick ([7]; female C57Bl/6J mice, standard chow, sCT 6 μg/kg per day from two days prior to immunization): 95.0%
- Severity ([7]; female C57Bl/6J mice, standard chow, sCT 6 μg/kg per day from two days prior to immunization, EAE score 0-5): 2.9 ± 1.1
- Mean Onset Day ([7]; female C57Bl/6J mice, standard chow, sCT 6 μg/kg per day from two days prior to immunization, days post immunization): 15 ± 2 days
- serum calcium levels ([8]; female 1α-OH KO mice): generally unaffected
- serum calcium levels ([8]; male 1α-OH KO mice): unaffected
- serum calcium levels ([9]; 6 μg/kg of calcitonin): initially lowered
- serum calcium levels ([9]; 60 μg/kg of calcitonin): initially lowered
